Results taken from a melting point compilation (Tetko et al.; mined from patent text by program, amines drawn as free bases though some values may be those of a salt).

Row | SMILES | melting point [°C]
1 | COCOc1cc(/C=C/S(=O)(=O)NC(=O)OC(C)(C)C)n(Cc2ccc(Cl)cc2Cl)n1 | 139 to 140
2 | Cn1c(COc2ccc(CC3SC(=O)NC3=O)cc2)nc2ccc(Oc3cccc(NC(=O)Nc4cccc(C(F)(F)F)c4)c3)cc21 (stereo not given) | 162 to 163
3 | COc1ccc2c(c1)C13CCN(CC4CC4)C(C2)C1(Cc1ccccc1)CCC1(C3)OCCO1 (stereo not given) | 165 to 167
4 | CC(O)CN1C(C)(C)CC(O)CC1(C)C (stereo not given) | 97 to 98
5 | CCc1cc(OC)c(C=O)cc1OC | 46 to 47
6 | Cc1nc2cc(NC(=O)Nc3ccc(C(F)(F)F)cc3)ccc2o1 | 240 to 243
7 | COC(=O)CCn1c(C)c(Cn2ccnc2)c2cc(CCC(=O)O)ccc21 | 134 to 137
8 | COC(=O)C1(c2cc(C#N)ccc2O)CCCC1 | 113 to 118
9 | COc1cc2ncnc(N3CCC(CCN4C=CC=NS4(=O)=O)CC3)c2cc1OC | 176 to 178
10 | Cc1nnc2cnc(-c3ccccc3)cn12 | 192 to 195
11 | Cn1c(C(F)(F)F)cc(=O)n(-c2ccc3snc(CF)c3c2)c1=O | 201 to 202
12 | Cc1ccc(N2N=C(C(F)(F)F)CC2c2ccc(S(C)(=O)=O)cc2)cc1 (stereo not given) | 140 to 143
13 | O=C1CCC(N2C=Nc3ccccc3CC2)C(=O)N1 (stereo not given) | 84 to 91
14 | Cc1ccc(Cc2cnc(NCCCN(Cc3ccccc3)c3ccccn3)[nH]c2=O)cn1 | 90 to 96
15 | COc1cccc2c(=O)c(C(=O)C3CCCCC3)c[nH]c12 | 168 to 170
16 | C[C@H](CSC(=O)c1ccccc1)C(=O)O | 63 to 65
17 | CN(C)Cc1nnc(CO)n1-c1ccc(Cl)cc1C(=O)c1ccccc1Cl | 138 to 141
18 | C[C@@H]1OC=C[C@H](NC(=O)C(F)(F)F)[C@@]1(O)OC(=O)C(F)(F)F | 73 to 74
19 | CC(C)CCS(=O)(=O)NC(=O)OCc1cc(OC(C)C)nn1Cc1ccc(Cl)cc1Cl | 104 to 107
20 | CC(C)Oc1ccc(-c2nc(-c3ccc(OC(C)C)cc3O)nc(-c3ccc(OC(C)C)cc3O)n2)c(O)c1 | 122

Row | SMILES | melting point [°C]
21 | Cc1cc(C)c2cccc(OCc3c(Cl)ccc(S(=O)(=O)N4CCC[C@H]4C(=O)NCCNC(=O)COc4ccc(C=NN)cc4)c3Cl)c2n1 | 156 to 160
22 | COC(=O)c1ccc(Cl)cc1N(C)S(C)(=O)=O | 73 to 75
23 | CCc1nn2ccc3c(c2c1CC#N)CCO3 | 179 to 180
24 | Cc1[nH]c2ccccc2c1CCCN1CCC(c2noc3ccc(F)cc23)CC1 | 144 to 146
25 | CC(=O)N(C(C)=O)c1cscn1 | 55
26 | CCSCc1cccc(-c2nc(=O)c3ccccc3s2)n1 | 142 to 144
27 | COc1csc(Cc2c(C(C)C)cc(C(C)C)c(C(C)O)c2-c2ccc(F)cc2)c1 (single isomer, unassigned; (+)) | 140 to 142
28 | CC(C)Cn1c(CN2CCOCC2)nc2c(N)nc3c(c21)CCCC3 | 165 to 172
29 | COc1cc(OC)nc(C(=O)c2cccc(Cl)c2C(=O)N(C)C)n1 | 141 to 142
30 | CCOC(Cc1ccc(OCCn2ccc3ccc(C(=O)C4CC4)nc32)cc1)C(=O)OC (stereo not given) | 159
31 | COc1cc(OC)c(F)c(N)c1F | 78 to 79
32 | Oc1ccc2c(c1O)OCC(c1ccc(F)cc1)C2 (stereo not given) | 166 to 168
33 | CN1C2CCC1CC(n1cc(-c3ccc(Oc4ccccc4)cc3)c3c(N)ncnc31)C2 (stereo not given) | 238 to 250
34 | O=C1Nc2nncn2CC1c1ccccc1 (stereo not given) | 184 to 186
35 | COC(=O)c1cccc(OCc2c(Cl)cccc2Cl)c1 | 96 to 98
36 | NCC(c1ccc(Cl)c(Cl)c1)C1CCCCC1O (mixture of isomers) | 117 to 118
37 | Cc1nc(NC(=O)c2cnn3c(C(F)F)cc(-c4ccc(C(F)(F)F)cc4)nc23)sc1S(=O)(=O)NC(C)(C)CO | 268
38 | O=C(O)c1ccc(CO/N=C/c2cn(Cc3ccccc3)c3ccccc23)cc1Br | 107 to 109
39 | COC(=O)Oc1ccc([N+](=O)[O-])cc1 | 111 to 112
40 | CCOC(=O)c1c(C)nn2ccc3c(c12)C(CC#N)CC3 (stereo not given) | 136 to 140

Row | SMILES | melting point [°C]
41 | COC(=O)C(=Cc1c[nH]c2cc(C)ccc12)[N+](=O)[O-] | 167 to 169
42 | CC(C(=O)O)c1ccc2c(c1)Cc1cccnc1O2 (stereo not given) | 183 to 184
43 | CS(=O)(=O)Nc1ccc2c(c1)S(=O)(=O)NC1CCCN21 (stereo not given) | 177 to 180
44 | CC(C)c1nc(CN2C(=O)C3(COc4cc5c(cc43)OCO5)c3ccccc32)co1 (stereo not given) | 118 to 120
45 | CC1(C)CCC(C)(C)c2cc([N+](=O)[O-])ccc21 | 46 to 50
46 | CN1CCN(c2ccc3ncnc(N4CCc5ccc(Cl)cc54)c3c2)CC1 | 289 to 290
47 | CN(C(=S)NN)c1ccccc1 | 121 to 122
48 | COc1cc(OC)c(-c2cccs2)cc1/C=C/C(=O)c1cccc(C(=O)O)c1 | 179 to 182
49 | COc1cc2c(Nc3ccc(Cl)cc3F)ncnc2cc1OCCCOc1ccncc1 | 138 to 140
50 | O=C1c2ccccc2C(=O)N1Cc1ccccc1[N+](=O)[O-] | 190 to 209
51 | C=C(Cl)COc1ccc(Br)cc1CN(CC)c1ccc(C(=O)O)cn1 | 207 to 209
52 | C[C@@H]1N=C(c2ccccc2)c2cc(I)ccc2N(C)C1=O | 115
53 | O=C(Oc1ccccc1)C(I)=C(I)I | 83 to 84.5
54 | COC(=O)C1Cc2c([nH]c3ccccc23)C(C)N1 (stereo not given) | 152 to 154
55 | O=S(=O)(c1ccc(Br)s1)N(CCO)CCO | 70
56 | CNc1ncc2c(-c3cccc(Cl)c3)cc(/C=C/C(=O)O)c(OC)c2n1 | 291 to 295
57 | O=C(CN1C(=O)[C@H](Cl)[C@H]1[S@@](=O)Cc1ccccc1)NCCCCCCc1ccc(F)cc1 | 87 to 89
58 | CC(=O)N1C(=O)N(COCc2ccccc2)C(=O)C12c1ccccc1N(CC(C)C)C(=O)N2C (stereo not given) | 70 to 72
59 | CC(C)n1nc(-c2sc(NC(=O)C3CCCCC3)nc2-c2ccccc2)ccc1=O | 234 to 236

Further lines, results first:

Row | melting point [°C] | SMILES
60 | 38.7 to 40.1 | CCN(C#N)C(=O)CCCCC(=O)N(C#N)CC
61 | 95 to 97 | CN(C)CCNc1nc2cc(Cl)c(Cl)cc2nc1-c1ccccn1
62 | 110 to 112 | CC(C)c1cc(OCC(=O)N(Cc2ccccc2)Cc2ccccc2)cc2c1C(=O)N(COC(=O)c1c(Cl)cccc1Cl)S2(=O)=O
63 | 102 | CCCCSc1nc(=O)n(C(=O)NC)s1
64 | 180 to 181 | CC(=O)Nc1cccc(C(=O)NCc2ccc(-n3c(-c4cccnc4N)nc4cc(C)cnc43)cc2)c1
65 | 169 to 171 | Fc1ccc(C(=C2SCCCS2)c2ccc(F)cc2)cc1
66 | 168 to 169 | CS(=O)(=O)c1ccc(Oc2ccc3[nH]c(C4=NCC(CC(=O)N5CCOCC5)S4)cc3c2)cn1 (stereo not given)
67 | 187 to 188 | Cn1ccc2ccc(N3Cc4ccc(-c5cccnc5)cc4C3=O)cc21
68 | 130 to 131 | CCOC(=O)C(=O)N(O)Cc1ccc2c(c1)Cc1ccccc1-2
69 | 134 to 135 | Cc1ccc(Nc2ncccc2O)cc1
70 | 156 | Cn1nc(-n2ncc(C(N)=S)c2N)c(Cl)c1OC(F)F
71 | 58 to 60 | CCOP(=O)(OCC)c1c(C)c2c(c(C)c1-c1c(OC)ccc3ccccc13)CN(S(=O)(=O)c1ccc(C)cc1)C2
72 | > 300 | CN(C)CC(=O)Nc1ccc2[nH]c(=O)c3ccccc3c2c1
73 | 113 to 116 | O=C(O)c1cc(=O)c2ccc(OCCCCCOc3ccc4c(=O)ccoc4c3)cc2o1
74 | 83 to 84 | CCN(CC)CCOc1ccc2cc3ccc(OCCN(CC)CC)c(Cl)c3nc2c1Cl
75 | 134 to 136 | CCOC(=O)C1=C(C)NC(C)=C(C(=O)OC)C1c1ccccc1Br (stereo not given)
76 | 192 to 195 | O=C(Nc1ccc(C(=O)N2CCc3sc(Cc4c[nH]cn4)nc3-c3ccccc32)cc1)c1ccccc1-c1ccccc1
77 | 194 to 196 | CCOc1noc(-c2nc[nH]n2)c1C
78 | 119 to 120 | CS(=O)c1cccc2c3c(n(Cc4ccc(Cl)cc4)c12)C(CC(=O)O)CCC3 (stereo not given)
79 | 202 to 203 | O=C(O)CCC(=O)c1cc2c(s1)CCc1ccccc1C2
80 | 67 | Cc1ccccc1-n1cc(-c2ccccc2)c(CBr)n1

Row | melting point [°C] | SMILES
81 | 149 to 150 | CN1CCC(NNC(=O)c2ccccc2)CC1
82 | 114 to 116 | CC(C)(C)OC(=O)N1CCC(CCOc2ccc(C=NO)cc2)CC1
83 | 143 to 146 | C[C@H](CSC(=O)c1ccc(Cl)c(S(N)(=O)=O)c1)C(=O)N1CCC[C@H]1C(=O)O
84 | 83 to 85 | CCOC(=O)C(C#N)=Cc1cc([N+](=O)[O-])ccc1Cl
85 | 181 to 184 | CC(C)(C)OC(=O)CN1C(=O)[C@@H](N2C(=O)c3ccccc3C2=O)CSc2ccccc21
86 | 102 to 103 | CCCCOc1ccc(SCCSc2ccc(OCCCC)cc2)cc1
87 | 179 to 180 | CC(C)(C)c1cc(CCc2ccccc2NC(=O)NCC(C)(C)c2ccc(F)cc2)cc(C(C)(C)C)c1O
88 | 192 to 194 | CCc1nc(O)c2c(n1)c(C)nn2CC
89 | 258 to 261 | CCCCOc1ccc(/C=C/c2nc3c([nH]2)c(=O)n(CC)c(=O)n3CC)cc1
90 | 105 to 107 | CCN1CC(=O)N(C)c2cc(Nc3ncc(Cl)c(Nc4ccc(OC)cc4-n4cccn4)n3)c(OC)cc2C1
91 | 107 to 109 | C=C(C)n1c(=O)n(CCN(C)Cc2ccccc2)c2ccccc21
92 | 238 | COc1cc(C)cc(-c2nn(CC#N)cc2-c2ccnc(S(C)(=O)=O)n2)c1
93 | 163 to 164 | Cc1ccc(S(=O)(=O)N2Cc3c(C)sc(C)c3C2)cc1
94 | 178 to 179 | Cc1cc(C)cc(C(=O)c2c(C(C)C)c(=O)[nH]c(=O)n2C/C=C/CCl)c1
95 | 263 to 265 | CN1CC(=O)Nc2cscc2C1=O
96 | 231 to 235 | CS(=O)(=O)c1c(C(=O)O)ccc(Cl)c1Oc1ccccc1
97 | 184 to 186 | CC1=C(c2ccncc2)C(C)CC(=O)N1 (stereo not given)
98 | 145 to 146 | CCC(=O)C(O)(Cc1ccc(Cl)cc1Cl)c1cccnc1 (stereo not given)
99 | 195 to 197 | CCS(=O)(=O)c1ccc(-c2nc(-c3nc4cc(OC)cc(OC)c4c(=O)[nH]3)ccc2OCCNC(C)C)cc1
100 | 193 to 194 | COc1ccc2c(-c3ccc(Cl)cc3F)noc2c1Cl
